For one assay, the target named is T1, arginase II (ARG II) (Homo sapiens, UniProt P78540).
T1 sequence (P78540 23-354): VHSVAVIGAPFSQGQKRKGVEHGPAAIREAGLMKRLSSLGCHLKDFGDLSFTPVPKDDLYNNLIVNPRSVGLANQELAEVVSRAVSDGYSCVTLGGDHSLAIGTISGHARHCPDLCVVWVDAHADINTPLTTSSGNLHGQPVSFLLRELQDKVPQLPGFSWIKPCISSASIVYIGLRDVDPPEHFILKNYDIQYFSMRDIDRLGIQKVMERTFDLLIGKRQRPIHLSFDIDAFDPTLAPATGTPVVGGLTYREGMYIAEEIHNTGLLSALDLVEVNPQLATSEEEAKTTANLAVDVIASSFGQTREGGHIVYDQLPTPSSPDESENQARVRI
The assay can be described thus: Inhibition of arginase II, spectrophotometric urea assay at 530 nm. Format: biochemical. Particulars: Formula II compounds, Table 2-A; read-out: Potency (ARG). As for the experimental part: (§1) The assay established the concentration of inhibitor that is required to reduce arginase activity by 50% (IC50).
(§2) Inhibition of arginase I (ARG I) and arginase II (ARG II) by Formula I and Formula II compounds is followed spectrophotometrically at 530 nm. The compound to be tested is dissolved in DMSO at an initial concentration 50-fold greater than its final concentration in the cuvette. 10 μl of the stock solution is diluted in 90 μl of the assay buffer that comprises 0.1M sodium phosphate buffer containing 130 mM NaCl, pH 7.4, to which is added ovalbumin (OVA) at a concentration of 1 mg/ml. Solutions of arginase I and II are prepared in 100 mM sodium phosphate buffer, pH 7.4 containing 1 mg/ml of OVA to give an arginase stock solution at a final concentration of 100 ng/ml.
(§3) To each well of a 96-well microtiter plate is add 40 μl of enzyme, 10 μl of an inventive compound and 10 μl of enzyme substrate (L-arginine+manganese sulfate). For wells that are used as positive controls, only the enzyme and its substrate are added, while wells used as negative controls contain only manganese sulfate.
(§4) After incubating the microtiter plate at 37° C. for 60 minutes, 150 μl of a urea reagent obtained by combining equal proportions (1:1) of reagents A and B is added to each well of the microtiter plate to stop the reaction. The urea reagent is made just before use by combining Reagent A (10 mM o-phthaldialdehyde, and 0.4% polyoxyethylene (23) lauryl ether (w/v) in 1.8 M sulfuric acid) with Reagent B (1.3 mM primaquine diphosphate, 0.4% polyoxyethylene (23) lauryl ether (w/v), 130 mM boric acid in 3.6 M sulfuric acid). After quenching the reaction mixture, the microtiter plate is allowed to stand for an additional 10 minutes at room temperature to allow color development. The inhibition of arginase is computed by measuring the optical density (OD) of the reaction mixture at 530 nm and normalizing the OD value to percent inhibition observed in the control. The normalized OD is then used to generate a dose-response curve by plotting the normalized OD values against log [concentration] and using regression analysis to compute the IC50 values.

In another assay the target is T2, human arginase I (ARG I) (Homo sapiens, UniProt P05089).
T2 sequence (P05089 1-322): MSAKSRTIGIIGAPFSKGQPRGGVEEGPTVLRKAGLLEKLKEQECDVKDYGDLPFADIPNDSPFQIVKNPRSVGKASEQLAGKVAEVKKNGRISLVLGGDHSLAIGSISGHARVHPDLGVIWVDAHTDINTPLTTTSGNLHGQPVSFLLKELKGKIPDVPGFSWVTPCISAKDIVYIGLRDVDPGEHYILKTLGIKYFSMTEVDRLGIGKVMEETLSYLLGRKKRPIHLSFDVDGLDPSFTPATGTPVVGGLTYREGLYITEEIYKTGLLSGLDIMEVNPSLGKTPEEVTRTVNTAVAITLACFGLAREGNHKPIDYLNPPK
The assay can be described thus: Inhibition of arginase I, spectrophotometric urea assay at 530 nm. Format: biochemical. Particulars: Formula II compounds, Table 2-A; read-out: Potency (ARG I). How it is done:
as §1, §2, §3, §4

For 26 molecules, IC50 results are on record in US9994594B2, “Inhibitors of arginase and their therapeutic applications” (MARS, INCORPORATED, priority 2010, dated 2018).

Structures can show the parent of a compound that is named as a salt. Where only a bound is given, the exact number is not on record here.

Regarding `N[C@@](CCCCB(O)O)(C(=O)O)[C@H]1CCN(c2ccc(Cl)cc2)C1` [12-A, (R)-2-amino-6-borono-2-((S)-1-(4-chlorophenyl)pyrrolidin-3-yl)hexanoic acid hydrochloride], the IC50 on arginase II (ARG II) and on human arginase I (ARG I) was 2000 to 5000 nM throughout.
With `NC(CCCCB(O)O)(C(=O)O)[C@@H]1CC(=O)N(c2ccc(Cl)cc2)C1` (stereo partly shown) [14-A, 2-amino-6-borono-2-[1-(4-chlorophenyl)-5-oxo-pyrrolidin-3-yl]-hexanoic acid hydrochloride], the IC50 at arginase II (ARG II) and at human arginase I (ARG I) was 2000 to 5000 nM each time.
On to `N[C@@H]1CC[C@H]([C@](N)(CCCCB(O)O)C(=O)O)C1` [15-A, (R)-2-amino-2-((1S,3R)-3-aminocyclopentyl)-6-boronohexanoic acid dihydrochloride], for which the IC50 at arginase II (ARG II) and at human arginase I (ARG I) was 0.1 to 250 nM throughout.
Turning to `N[C@H]1CC[C@H]([C@](N)(CCCCB(O)O)C(=O)O)C1` [16-A, (R)-2-amino-2-((1S,3S)-3-aminocyclopentyl)-6-boronohexanoic acid dihydrochloride], the IC50 at arginase II (ARG II) and at human arginase I (ARG I) was 0.1 to 250 nM each time.
For `N[C@H]1CC[C@@H]([C@@](N)(CCCCB(O)O)C(=O)O)C1` [17-A, (S)-2-amino-2-((1R,3S)-3-aminocyclopentyl)-6-boronohexanoic acid dihydrochloride], the IC50 on arginase II (ARG II) and on human arginase I (ARG I) was 0.1 to 250 nM each time.
For the molecule `NC(CCCCB(O)O)(C(=O)O)C1CNC1` (stereo not shown) [18-A, 2-amino-2-(azetidin-3-yl)-6-boronohexanoic acid dihydrochloride], the IC50 on arginase II (ARG II) and at human arginase I (ARG I) was 2000 to 5000 nM throughout.
Regarding `NC(CCCCB(O)O)(C(=O)O)C1CNCCO1` (stereo not shown) [19-A, 2-amino-6-borono-2-(morpholin-2-yl)hexanoic acid dihydrochloride], the IC50 at arginase II (ARG II) and at human arginase I (ARG I) was 2000 to 5000 nM each time.
With `NC1CCC(C(N)(CCCCB(O)O)C(=O)O)CC1` (stereo not shown) [20-A, 2-amino-2-(4-aminocyclohexyl)-6-boronohexanoic acid dihydrochloride], the IC50 on arginase II (ARG II) and at human arginase I (ARG I) was 251 to 1000 nM each time.
For `NC(CCCCB(O)O)(C(=O)O)C1CCN(C2CCCCC2)CC1` (stereo not shown) [23-A, 2-amino-6-borono-2-(1-cyclohexylpiperidin-4-yl)hexanoic acid dihydrochloride], the IC50 on arginase II (ARG II) and at human arginase I (ARG I) was 251 to 1000 nM in each case.
As to `NC(CCCCB(O)O)(C(=O)O)C1CCN(C2CCCC2)CC1` (stereo not shown) [24-A, 2-amino-6-borono-2-(1-cyclopentylpiperidin-4-yl)hexanoic acid dihydrochloride], the IC50 on arginase II (ARG II) and on human arginase I (ARG I) was 251 to 1000 nM in each case.
With `CC1(C)CCC(N2CCC(C(N)(CCCCB(O)O)C(=O)O)CC2)CC1` (stereo not shown) [25-A, 2-amino-6-borono-2-[1-(4,4-dimethylcyclohexyl)piperidin-4-yl]hexanoic acid dihydrochloride], the IC50 on arginase II (ARG II) fell in the range of 251 to 1000 nM; at human arginase I (ARG I), 0.1 to 250 nM.
On to `NC(CCCCB(O)O)(C(=O)O)C1CCN(C(=O)c2ccc(Cl)cc2)CC1` (stereo not shown) [26-A, 2-amino-6-borono-2-[1-(4-chlorobenzoyl)piperidin-4-yl]hexanoic acid hydrochloride], for which the IC50 on arginase II (ARG II) and on human arginase I (ARG I) was 2000 to 5000 nM in each case.
Consider `CC(=O)N1CCC(C(N)(CCCCB(O)O)C(=O)O)CC1` (stereo not shown) [27-A, 2-amino-6-borono-2-[1-acetylpiperidin-4-yl]hexanoic acid hydrochloride], for which the IC50 on arginase II (ARG II) and at human arginase I (ARG I) was 2000 to 5000 nM each time.
As to `NC(CCCCB(O)O)(C(=O)O)C1CCN(C(=O)Cc2ccc(F)cc2)CC1` (stereo not shown) [28-A, 2-amino-6-borono-2-{1-[(4-fluorophenyl)acetyl]-piperidin-4-yl}hexanoic acid hydrochloride], the IC50 on arginase II (ARG II) and on human arginase I (ARG I) was 2000 to 5000 nM throughout.
Regarding `NC(CCCCB(O)O)(C(=O)O)C1CCN(C(=O)Cc2ccc(Cl)cc2)CC1` (stereo not shown) [29-A, 2-amino-6-borono-2-{1-[(4-chlorophenyl)acetyl]-piperidin-4-yl}hexanoic acid hydrochloride], the IC50 at arginase II (ARG II) was above 5000 nM; on human arginase I (ARG I), 1000 to 2000 nM.
For the molecule `NC(CCCCB(O)O)(C(=O)O)C1CCN(C(=O)c2ccccc2)CC1` (stereo not shown) [30-A, 2-amino-6-borono-2-[1-benzoylpiperidin-4-yl]hexanoic acid hydrochloride], the IC50 on arginase II (ARG II) and on human arginase I (ARG I) was 2000 to 5000 nM in each case.
For `NC(CCCCB(O)O)(C(=O)O)C1CCN(C(=O)NCc2ccc(Cl)cc2)CC1` (stereo not shown) [31-A, 2-amino-6-borono-2-{1-[(4-chlorobenzyl)carbamoyl]-piperidin-4-yl}hexanoic acid hydrochloride], the values for the IC50 on arginase II (ARG II) and at human arginase I (ARG I) were 2000 to 5000 nM and 1000 to 2000 nM, respectively.
The corresponding values for `NC(CCCCB(O)O)(C(=O)O)C1CCN(C(=O)Nc2ccc(Cl)cc2)CC1` (stereo not shown) [32-A, 2-amino-6-borono-2-{1-[(4-chlorophenyl)-carbamoyl]piperidin-4-yl}hexanoic acid hydrochloride] are 251 to 1000 nM and 251 to 1000 nM.
The corresponding values for `NC(CCCCB(O)O)(C(=O)O)C1CCN(C(=O)NCCc2ccc(F)cc2)CC1` (stereo not shown) [33-A, 2-amino-6-borono-2-(1-{[2-(4-fluorophenyl)ethyl]-carbamoyl}piperidin-4-yl)hexanoic acid hydrochloride] are 1000 to 2000 nM and 1000 to 2000 nM.
For the molecule `NC(CCCCB(O)O)(C(=O)O)C1CCN(C(=S)Nc2ccc(Cl)cc2)CC1` (stereo not shown) [34-A, 2-amino-6-borono-2-(1-{[(4-chlorophenyl)amino]carbonothioyl}piperidin-4-yl)hexanoic acid hydrochloride], the IC50 at arginase II (ARG II) and on human arginase I (ARG I) was 251 to 1000 nM in each case.
Consider `NC(CCCCB(O)O)(C(=O)O)C1CCN(C(=S)Nc2ccc(Cl)cc2)C1` [35-A, 2-amino-6-borono-2-((S)-1-(4-chlorophenylcarbamothioyl)-pyrrolidin-3-yl)hexanoic acid hydrochloride], for which the IC50 on arginase II (ARG II) and at human arginase I (ARG I) was 251 to 1000 nM in each case.
For `NC(CCCCB(O)O)(C(=O)O)C1CCN(C(=O)Nc2ccc(Cl)cc2)C1` [36-A, 2-amino-6-borono-2-((S)-1-(4-chlorophenylcarbamoyl)pyrrolidin-3-yl)hexanoic acid hydrochloride], the IC50 fell in the range of 2000 to 5000 nM at arginase II (ARG II) and 251 to 1000 nM on human arginase I (ARG I).
The corresponding values for `Cc1ccc(CN2CC[C@@H](C(N)(CCCCB(O)O)C(=O)O)C2)cc1` (stereo partly drawn) [Example 39-A, 2-Amino-6-borono-2-((R)-1-(4-methylbenzyl)pyrrolidin-3-yl)hexanoic acid dihydrochloride] are 251 to 1000 nM and 251 to 1000 nM.
The corresponding values for `NC(CCCCB(O)O)(C(=O)O)[C@@H]1CCN(S(=O)(=O)c2ccccc2[N+](=O)[O-])C1` (stereo partly drawn) [Example 40-A, 2-amino-6-borono-2-((R)-1-(2-nitrophenylsulfonyl)pyrrolidin-3-yl)hexanoic acid] are 251 to 1000 nM and 251 to 1000 nM.
The like results for `NC(CCCCB(O)O)(C(=O)O)C1CCN(CCc2ccccc2)CC1` (stereo not shown) [Example 41-A, 2-amino-6-borono-2-(1-phenethylpiperidin-4-yl)hexanoic acid] were, in that order, 0.1 to 250 nM and 251 to 1000 nM.
In the case of `NC(CCCCB(O)O)(C(=O)O)C1CCN(C(=O)Nc2ccc(Cl)c(Cl)c2)CC1` (stereo not shown) [Example 42-A, 2-amino-6-borono-2-(1-(3,4-dichlorophenylcarbamoyl)piperidin-4-yl)hexanoic acid], the IC50 at arginase II (ARG II) was in the range of 1000 to 2000 nM; at human arginase I (ARG I) it was 251 to 1000 nM.
